The test system of series [1] is patients with hereditary angioedema. The conditions noted are these: cited from earlier work.
For series [2], the system named is animal model of ischemic stroke. The conditions noted are these: cited from earlier work.
A short description of series [3]: Intestinal permeability / solubility classification (BCS).
The subject of series [4] is angiotensin-II-treated rodents. The conditions noted are these: cited from earlier work.
Series [5] has as its system model of hemorrhagic stroke. The conditions noted are these: cited from earlier work.
Series [6] concerns rat model of ischemic stroke. Particulars: cited from earlier work.
Series [7] is described as follows: Aqueous solubility of anhydrous Crystalline Form I. The conditions noted are these: water (aqueous); anhydrous Crystalline Form I of acetate salt, at 25° C. Format: physicochemical.
The subject of series [8] is mouse model of middle cerebral artery occlusion. Particulars: cited from earlier work.

In the case of `NC(N)=NCCC[C@@H](N)C(=O)N[C@@H](CCCN=C(N)N)C(=O)N1CCC[C@H]1C(=O)N1C[C@H](O)C[C@H]1C(=O)NCC(=O)N[C@@H](Cc1cccs1)C(=O)N[C@@H](CO)C(=O)N1Cc2ccccc2C[C@@H]1C(=O)N1[C@H](C(=O)N[C@@H](CCCN=C(N)N)C(=O)O)C[C@@H]2CCCC[C@@H]21` [icatibant], the treating hereditary angioedema result in series [1] (human, in vivo) is “effective”.
ecallantide: in series [2], the brain edema entry was “reduced”, the infarct volume result is on record as “reduced” and the neurological deficits result was “reduced”. Also, the “edema in patients with hereditary angioedema” value in series [1] (patients) is reported as “alleviates”.
As usually defined, the solubility is the dissolved amount per volume that the medium holds. Regarding `N=C(N)c1ccc(CNC(=O)c2cnn(Cc3ccccc3)c2)cc1` [Compound 1, 1-benzyl-1H-pyrazole-4-carboxylic acid 4-carbamimidoylbenzylamide], in series [3], the BCS class entry is recorded as “BCS Class 3” and the solubility result was “high”. Also, the retinal vascular permeability entry in series [4] is “reduce”. For the same molecule, in series [5], the “expansion of intracerebral hemorrhage” value was “reduce”. In series [6], the cerebrovascular edema result is given as “reduce” and the infarction volume result is “reduce”. For the same molecule, in series [7], the solubility was ~8300 µg/mL.
As for Hoe-140 [reference compound], the retinal vascular permeability result in series [4] was “reduce”.

B1: C1-INH: the major endogenous inhibitor of PK (protein, UniProt P05155 23-500, looked up)
Plasma protease C1 inhibitor: NPNATSSSSQDPESLQDRGEGKVATTVISKMLFVEPILEVSSLPTTNSTTNSATKITANTTDEPTTQPTTEPTTQPTIQPTQPTTQLPTDSPTQPTTGSFCPGPVTLCSDLESHSTEAVLGDALVDFSLKLYHAFSAMKKVETNMAFSPFSIASLLTQVLLGAGENTKTNLESILSYPKDFTCVHQALKGFTTKGVTSVSQIFHSPDLAIRDTFVNASRTLYSSSPRVLSNNSDANLELINTWVAKNTNNKISRLLDSLPSDTRLVLLNAIYLSAKWKTTFDPKKTRMEPFHFKNSVIKVPMMNSKKYPVAHFIDQTLKAKVGQLQLSHNLSLVILVPQNLKHRLEDMEQALSPSVFKAIMEKLEMSKFQPTLLTLPRIKVTTSQDMLSIMEKLEFFDFSYDLNLCGLTEDPDLQVSAMQHQTVLELTETGVEAAAASAISVARTLLVFEVQQPFLFVLWDQQHKFPVFMGRVYDPRA
Consider B1, for which the infarct size result in series [8] was “reduced”.

The values above are taken from patent US20240182427A1, “SOLID DOSAGE FORMS OF A PLASMA KALLIKREIN INHIBITOR” (Rezolute, Inc., priority 2022, published 2024).
